Results as given in article PMC5063977 (The Journal of Biological Chemistry, 2016).

Key:
RAMP3-CLR (AM2 receptor) [1] = target: T1, RAMP3-CLR (AM2 receptor) (Homo sapiens, UniProt O60896+Q16602); assay: S. cerevisiae growth assay, GPA1/Gαi chimera, RAMP3 + CLR; type: cell-based; conditions: percentage of yeast strain MMY11 (lacking GPA1); 20 h; mean ± S.E., n = 7
T1 construct: FLAG; expressed in transfected cells; host or cells: HEK-293 or HEK-293S cells, transient transfection, 1:1 RAMP:CLR
Procedure: FIGURE 3. […] Reporter gene activity was determined following 20 h of stimulation.
General yeast procedures were performed as described previously ([22], [24]). The human CLR was introduced into yeast cells under the control of the PGK promoter using a plasmid containing ura3 (pDT-PGK). The three human RAMPs were introduced into yeast under the control of the GAPDH promoter using plasmids containing leu2 (p425-GPD) ([25]). S. cerevisiae dual reporter strains expressing chimeras of yeast GPA1(1–467) (GPA1/Gα) with the five C-terminal amino acids of […] human G proteins representing Gαs, Gα16, Gαq, Gαo, Gαi1/2, Gαi3, Gαz, Gα12, Gα13, and Gα14 (MMY84–MMY93) were used in this study ([52]). […] Receptor signaling was measured using the yeast growth assay as described previously ([24]). […] A fluorescein signal was detected as an increase in fluorescence (excitation wavelength = 485 nm, emission wavelength = 535 nm) as a measure of growth. Different concentrations of ligand (0.01 nM–100 μM) were assayed using 96-well plates, and fluorescence was detected using a Tecan Infinite M200 microplate reader (Tecan Ultra Evolution, Reading, UK) or a Mithras LB 940 microplate reader (Berthold Technologies, Harpenden, UK) for 20 h. […]

RAMP3-CLR (AM2 receptor) [2] = target: T1, RAMP3-CLR (AM2 receptor); assay: (Ca^2+)i mobilization, HEK-293S cells, RAMP3 + CLR; type: cell-based; conditions: HEK293S, percentage of maximal (Ca^2+)i release with 10 μM ionomycin, mean ± S.E., n = 5
Procedure: HEK-293 cells, provided by Dr. Jügen Müller (University of Aston), were cultured in DMEM supplemented with 10% heat-inactivated FBS and kept at 37 °C in a humidified 95% air, 5% CO2 incubator. HEK-293S cells (a gift from AstraZeneca) were cultured in DMEM supplemented with 8% heat-inactivated FBS and kept at 37 °C in a humidified 95% air, 5% CO2 incubator. HEK-293 cells were transfected with FuGENE 6 (Roche Applied Science) in accordance with the manufacturer's instructions using a 1:3 (w:v) DNA:FuGENE ratio and a 1:1 ratio of RAMP to CLR. HEK-293S cells were seeded into 96-well poly-D-lysine-coated plates at a density of 15,000 cells/well (determined using a Countess^TM cell counter, Invitrogen) 1 day prior to transfection. HEK-293S cells were transiently transfected as described previously ([38]) using a 1:1 ratio of RAMP to CLR. The transfected cell lines were grown for 24–48 h prior to assaying.
Transfected HEK-293 cells were grown to confluence in black, clear bottomed, 96-well plates. […] Ligands were added robotically using a Mithras LB 940 multimode microplate reader in the range of 10 pM to 1 μM, and fluorescence was determined immediately post-injection with an excitation wavelength set to 485 nm and an emission wavelength set to 535 nm. […] Peak magnitude was calculated using five-point smoothing followed by correction against background fluorescence. […]

T1 sequence (Q16602 23-461): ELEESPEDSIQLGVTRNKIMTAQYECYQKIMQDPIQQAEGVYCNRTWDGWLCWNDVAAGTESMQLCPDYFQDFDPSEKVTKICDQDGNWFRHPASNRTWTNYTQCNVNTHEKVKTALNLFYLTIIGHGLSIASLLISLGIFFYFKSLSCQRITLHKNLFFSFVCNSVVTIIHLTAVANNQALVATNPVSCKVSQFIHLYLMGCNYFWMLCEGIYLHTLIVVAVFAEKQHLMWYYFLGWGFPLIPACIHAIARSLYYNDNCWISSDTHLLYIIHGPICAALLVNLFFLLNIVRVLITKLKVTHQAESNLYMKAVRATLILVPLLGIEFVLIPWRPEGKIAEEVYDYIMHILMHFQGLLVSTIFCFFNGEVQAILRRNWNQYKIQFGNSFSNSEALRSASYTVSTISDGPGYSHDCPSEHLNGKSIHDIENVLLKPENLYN
T1 sequence (O60896 24-148): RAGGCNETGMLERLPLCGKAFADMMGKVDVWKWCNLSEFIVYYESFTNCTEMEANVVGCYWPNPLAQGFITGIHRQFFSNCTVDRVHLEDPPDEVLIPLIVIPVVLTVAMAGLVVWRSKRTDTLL

Compound | Emax (RAMP3-CLR (AM2 receptor) [1]) [%] | Emax (RAMP3-CLR (AM2 receptor) [2]) [%]
CSCC[C@H](NC(=O)[C@H](CC(C)C)NC(=O)[C@H](CCC(N)=O)NC(=O)[C@H](Cc1c[nH]c2ccccc12)NC(=O)[C@H](CC(C)C)NC(=O)[C@H](CCCNC(=N)N)NC(=O)[C@H](Cc1c[nH]cn1)NC(=O)[C@H](CO)NC(=O)[C@H](CC(C)C)NC(=O)[C@H](CC(N)=O)NC(=O)[C@H](CCC(N)=O)NC(=O)[C@@H](NC(=O)[C@H](CCC(N)=O)NC(=O)[C@@H]1CSSC[C@H](NC(=O)CNC(=O)[C@@H](NC(=O)[C@H](CCCNC(=N)N)NC(=O)[C@H](CC(C)C)NC(=O)[C@H](CC(C)C)NC(=O)[C@H](CCC(N)=O)NC(=O)[C@H](C)NC(=O)[C@H](CCC(N)=O)NC(=O)[C@@H](N)[C@@H](C)O)C(C)C)C(=O)N[C@@H](C(C)C)C(=O)N[C@@H](CC(C)C)C(=O)NCC(=O)N[C@@H]([C@@H](C)O)C(=O)N1)C(C)C)C(=O)NCC(=O)N1CCC[C@H]1C(=O)N[C@@H](C)C(=O)NCC(=O)N[C@@H](CCCNC(=N)N)C(=O)N[C@@H](CCC(N)=O)C(=O)N[C@@H](CC(=O)O)C(=O)N[C@@H](CO)C(=O)N[C@@H](C)C(=O)N1CCC[C@H]1C(=O)N[C@H](C(=O)N[C@@H](CC(=O)O)C(=O)N1CCC[C@H]1C(=O)N[C@@H](CO)C(=O)N[C@@H](CO)C(=O)N1CCC[C@H]1C(=O)N[C@@H](Cc1c[nH]cn1)C(=O)N[C@@H](CO)C(=O)N[C@@H](Cc1ccc(O)cc1)C(N)=O)C(C)C [AM2, adrenomedullin 2] | 15.7 ± 2.1 | 20.1 ± 4.3
CC[C@H](C)[C@H](NC(=O)[C@H](CCC(N)=O)NC(=O)[C@H](Cc1c[nH]cn1)NC(=O)[C@H](C)NC(=O)[C@H](CC(C)C)NC(=O)[C@H](CCCCN)NC(=O)[C@H](CCC(N)=O)NC(=O)[C@@H](NC(=O)[C@@H](NC(=O)[C@@H]1CSSC[C@H](NC(=O)CNC(=O)[C@H](Cc2ccccc2)NC(=O)[C@H](CO)NC(=O)[C@H](CCCNC(=N)N)NC(=O)[C@H](CC(C)C)NC(=O)CNC(=O)[C@H](CCC(N)=O)NC(=O)[C@H](Cc2ccccc2)NC(=O)[C@H](CC(N)=O)NC(=O)[C@H](CC(N)=O)NC(=O)[C@H](CCSC)NC(=O)[C@H](CO)NC(=O)[C@H](CCC(N)=O)NC(=O)[C@H](CCCNC(=N)N)NC(=O)[C@@H](N)Cc2ccc(O)cc2)C(=O)N[C@@H](CCCNC(=N)N)C(=O)N[C@@H](Cc2ccccc2)C(=O)NCC(=O)N[C@@H]([C@@H](C)O)C(=O)N1)[C@@H](C)O)C(C)C)C(=O)N[C@@H](Cc1ccc(O)cc1)C(=O)N[C@@H](CCC(N)=O)C(=O)N[C@@H](Cc1ccccc1)C(=O)N[C@H](C(=O)N[C@@H](CC(=O)O)C(=O)N[C@@H](CCCCN)C(=O)N[C@@H](CC(=O)O)C(=O)N[C@@H](CCCCN)C(=O)N[C@@H](CC(=O)O)C(=O)N[C@@H](CC(N)=O)C(=O)N[C@H](C(=O)N[C@@H](C)C(=O)N1CCC[C@H]1C(=O)N[C@@H](CCCNC(=N)N)C(=O)N[C@@H](CO)C(=O)N[C@@H](CCCCN)C(=O)N[C@H](C(=O)N[C@@H](CO)C(=O)N1CCC[C@H]1C(=O)N[C@@H](CCC(N)=O)C(=O)NCC(=O)N[C@@H](Cc1ccc(O)cc1)C(N)=O)[C@@H](C)CC)C(C)C)[C@@H](C)O [AM, adrenomedullin] | 26.7 ± 1.8 | 44.3 ± 3.2
